Values quoted from earlier work as cited in patent US20240024159A1, “POSTERIOR CHAMBER PLACEMENT OF SUSTAINED RELEASE IMPLANT” (Allergan, Inc., priority 2020, published 2024).

Test system: prostaglandin (PG) sensitive receptors

interaction with prostaglandin (PG) sensitive receptors: no meaningful interaction
SMILES: CCNC(=O)CCC/C=C\C[C@@H]1[C@@H](/C=C/[C@@H](O)CCc2ccccc2)[C@H](O)C[C@@H]1O [bimatoprost]
